Columns and labels:
Format in all cases: physicochemical
[1] = Titration of zinc chloride with sodium tripolyphosphate, clarity of solution; conditions: zinc chloride titrated with sodium tripolyphosphate; solution cloudy until about 1 equivalent of STPP was added
Experimental: In the single component titration procedure, a scintillation vial (20 mL) is loaded with 2 mL of a 0.25M zinc nitrate solution and 6 mL of distilled water. The vial is stirred on a magnetic stir plate with an immersed pH electrode. Initial pH is measured. While stirring, the solution is slowly titrated with a 0.75M aqueous solution of arginine in small portions (e.g., 0.01-0.1 mL). In between each addition, the solution is allowed to equilibrate and the pH is recorded. At the conclusion of the experiment, the molar equivalent of added arginine is plotted against the pH. The slope is calculated and plotted as well to highlight the inflection points, which indicate where complex formation takes places.
Substantially the same single-component titration procedure is also performed in a titration of 0.75M zinc chloride with 0.25M sodium tripolyphosphate.

[2] = Dilution experiment (precipitation on dilution with water); conditions: solutions in distilled water, ZLP 200 mg/mL, ZLC 185 mg/mL; diluted with water at ratios from 1:2 to 1:16; ZLC result at dilutions of 1:8 to 1:16
Experimental: (§1) A solution of ZLP in distilled water at a concentration of 200 mg/mL (23.6 wt % zinc) is prepared. For comparison, a solution of zinc-lysine-chloride complex (ZLC) ([Zn(lysine)2Cl]Cl) is prepared at a concentration of 185 mg/mL. Both solutions are diluted with water at ratios from 1:2 to 1:16.

[3] = Foaming experiment with sodium lauryl sulfate; conditions: 7.25 wt % complex (0.85 wt % zinc) with 2 wt % sodium lauryl sulfate in distilled water; vial shaken ten times
Experimental: A solution of ZLP in distilled water at a concentration of 7.25 wt % (0.85 wt % zinc) containing also 2 wt % of sodium lauryl sulfate is compared to a solution of ZLC and sodium lauryl sulfate at the same concentrations and to a solution of sodium lauryl sulfate. Each solution is sealed in a screw-cap vial and shaken back and forth ten times. […] A similar experiment is conducted using an 1:10 aqueous slurry of the toothpaste formula of Example 1 compared to a control toothpaste having the same composition except for the absence of ZLP (in the control, the 7.25% ZLP is replaced by 0.5 wt % TSPP and 6.75 wt % sorbitol, 70%).

[4] = Polyphosphate experiment (mixing with STPP solution); conditions: 5 mL of aqueous complex solution mixed with 5 mL of 2 wt % STPP solution
Experimental: Aqueous solutions of ZLP and ZLC, respectively, are prepared as described above, and 5 mL of each of these solutions is mixed with 5 mL STPP solution at a concentration of 2 wt %. […] Thus, ZLP complex is stable in the presence of additional STPP, whereas other zinc complexes may not be.

[5] = Storage of undiluted solution at room temperature, repeat LC-MS analysis; conditions: undiluted 200 mg/mL solution stored at room temperature for one month
Experimental: About 6.0 g of lysine hydrochloride is dissolved in 250 ml distilled water with stirring at room temperature. About 12.0 g sodium tripolyphosphate pentabasic is added with stirring, followed by either 50% aqueous sodium hydroxide solution or concentrated hydrochloric acid solution to adjust the pH to either 5, 6, 7, 8, 9 or 10. To the resulting solution, about 2.68 g of zinc oxide is slowly added. The mixture is then allowed to stir at either room temperature, 50° C. or 80° C., for 2 hours. The reaction is monitored by liquid chromatography-mass spectrometry (LC-MS, using electrospray ionization-tandem mass spectrometer running positive ion mode). LC separation is achieved on Agilent Zorbax SB-Aq column (2.1 mm i.d.×50 mm, 3.5 μm particle size), running 5% water/methanol at 70 μL/minute with 1 μL injection volume.
as §1

| solubility in aqueous titration solution [1] | change of LC-MS spectrum after storage [5] | Compound | precipitation upon dilution with water [2] | foaming of solution with SLS relative to aqueous SLS solution [3] | appearance after mixing with STPP solution [4] |
| --- | --- | --- | --- | --- | --- |
| soluble | – | O=P([O-])([O-])OP(=O)([O-])OP(=O)([O-])[O-].[Na+].[Na+].[Na+].[Zn+2] [Na3Zn(P3O10)] | – | – | – |
| poorly soluble | – | O=P([O-])([O-])OP(=O)([O-])OP(=O)([O-])[O-].[Na+].[Zn+2].[Zn+2] [NaZn2(P3O10)] | – | – | – |
| – | – | NCCCCC(N)C(=O)O.NCCCCC(N)C(=O)O.[Cl-].[Cl-].[Zn+2] (stereo not drawn) [ZLC, [Zn(lysine)2Cl]Cl] | significant precipitation of insoluble material | significantly inhibited | produces a white precipitate |
| – | has not changed | [Zn(C6H14N2O2)(P3O10)Na4]^+Cl^− [ZLP] | no precipitation occurs at any dilution | comparable | remains clear and homogenous |

Source: patent US20190175479A1, “Zinc-Amino Acid-Tripolyphosphate Complexes” (Colgate-Palmolive Company, priority 2017, published 2019)
